{
  "source": "patent US20090197853A1",
  "about": "“METHODS AND COMPOSITIONS OF TREATING CANCER” (priority 2005, published 2009)",
  "key": {"[1]": {"system": "metallothionein gene family members and ZnT1", "test": "Northern blot analysis, A549 cultures", "format": "cell-based, human", "settings": "for Metallothionein transcript levels: A549, 24 hours, 50 μM MGd, Zn(OAc)2 100 μM, CdCl2 50 μM, FIG. 2B", "method": "Methods: Northern Blot Analysis—Plateau phase cultures of A549 cells were prepared as described above, except that T-25 flasks were used, and the number of cells initially plated scaled accordingly. Cultures were treated with 50 μM MGd, 5 μM Gd(OAc)3 or 5% mannitol for 4 hours, whereupon cultures were washed twice with PBS and RNA harvested as above. Alternatively, 7-day plateau phase A549 or PC3 cultures were treated with 50 μM MGd, 50-100 μM Zn(OAc)2, 50 μM CdCl2 or 5% mannitol for 24 hours (A549) or 4 hours (PC3) prior to washing and RNA analysis. Exponential phase Ramos cultures were treated for 6 hours. Northern blots were conducted and analyzed. Radio labeled metallothionein probe, designed to bind to a 113-bp region of 3′-UTR sequences from multiple metallothionein gene family members, was generated using 5′-[…]-3′ (forward) and 5′-[…]-3′ (reverse) PCR primers and the NEBlot kit (New England Biolabs, Inc.). Radio labeled ZnT1 probe was generated in a similar fashion using 5′-[…]-3′ (forward) and 5′-[…]-3′ (reverse) primers."}, "A549 cells [2]": {"system": "A549 cells", "test": "Intracellular free zinc (FluoZin-3 fluorescence), A549", "format": "cell-based, human", "settings": "for Increase in cellular FluoZin-3 fluorescence: A549, MGd in the absence of actinomycin D", "method": "Methods: The concentration of intracellular free zinc was assessed using the ion-specific fluorescent probe, FluoZin-3-AM™ (FluoZin-3, Molecular Probes, Inc.). […] Following treatment, cells were isolated by centrifugation. Cell pellets were washed and re-suspended in a solution of 0.5% BSA in PBS."}, "A549 cells [3]": {"system": "A549 cells", "test": "Proliferation (tetrazole reduction/MTT), A549", "format": "cell-based, human", "settings": "for A549 cell proliferation: exponential phase, 24 hours treatment plus 48 hr growth, zinc up to 100 μM", "method": "(§1) Methods: The proliferation of exponential phase cultures was assessed by colorimetric assay. In brief, 2×10^5 suspension cells per well were seeded on 96-well V-bottom microtiter plates. Stock solutions of control vehicle, MGd or Zn(OAc)2 in medium were added and plates were incubated at 37° C. under a 5% CO2/95% air atmosphere. After 24 hours, medium was replaced with fresh medium. After 2 additional days, medium was exchanged with fresh medium (150 μL/well) supplemented with 3-(4,5-dimethylthiazol-2-yl)-2,5-diphenyltetrazolium bromide (MTT, 0.5 mg/mL, Sigma Biochemical, St. Louis, Mo.). Plates were incubated at 37° C. and viable cells measured."}, "PC3 cells": {"system": "PC3 cells", "test": "Proliferation, PC3", "format": "cell-based", "method": "as §1"}, "[4]": {"system": "Ramos B-cell lymphoma cells", "test": "Proliferation, Ramos", "format": "cell-based", "settings": "50 μM zinc", "method": "as §1\nas §1, with “Cellular Proliferation—The” for “Methods: The”"}, "Thioredoxin reductase": {"system": "Thioredoxin reductase", "test": "Lipoate reduction (thioredoxin reductase activity) in intact A549 cells", "format": "cell-based, human", "settings": "for Inhibition of lipoate reduction: plateau phase A549, two-hour treatment", "method": "Methods: Lipoate Reduction. Thioredoxin reductase activity was assessed by measuring the rate of lipoate reduction. In brief, A549 or PC3 cells (10,000 cells/well) were plated on 96-well plates and allowed to adhere overnight and grow two additional days until confluent. Cells were treated with MGd, zinc, or 5% mannitol for 2-4 hours, as indicated. Medium was removed, cells were washed with Hanks Balanced Salt Solution (HBSS), and a solution of 5 mM lipoic acid and 1 mM 5,5′-dithiobis(2-nitrobenzoic acid) in HBSS (100 μL/well) was added. Plates were incubated at ambient temperature in the dark. At chosen time intervals, plate absorbance was measured at 405-650 nm. Plate absorbances were normalized to wells containing neither exogenous zinc nor texaphyrin complex to allow plate-to-plate comparison. In some experiments, L-buthionine-[S,R]-sulfoximine (BSO, 100 μM) was added 24 hours prior to MGd or zinc treatment, to inhibit any contribution to lipoate reduction made by glutathione-dependent pathways (28). Actinomycin D (2.5 μg/mL) or cycloheximide (10 μg/mL), where present, was added 1 hour prior to texaphyrin or zinc treatment. Viability was checked on parallel plates using the tetrazolium dye 3-(4,5-dimethylthiazol-2-yl)-5-(3-carboxymethoxyphenyl)-2-(4-sulfophenyl)-2H-tetrazolium (MTS) following the manufacturers protocol (Promega Corp.)."}, "Ramos cells [5]": {"system": "Ramos cells", "test": "Reactive oxygen species (DCFA to DCF), Ramos", "format": "cell-based", "settings": "single agents", "method": "Methods: Reactive oxygen species were measured in live cells as intracellular peroxides by monitoring the oxidation of 2′,7′-dichlorofluorescin-diacetate (DCFA) to 2′,7′-dichlorofluorescein (DCF) (Molecular Probes). Cells (1×10^6 per mL) were incubated in a solution of 1 μg per mL DCFA in 0.5% BSA in HBSS for 15 minutes at 37° C. Two mL additional 0.5% BSA in HBSS was added, cells were isolated by centrifugation, and the pellet re-suspended in a solution of 50 μg/mL 7-aminoactinomycin D (7-AAD) in 0.5% BSA in HBSS. Cell suspensions were incubated at ambient temperature for 2 to 3 minutes, and stored on ice until analysis. The fluorescent intensity in live (i.e., 7-AAD impermeable) cells was analyzed by flow cytometry."}, "Ramos cells [6]": {"system": "Ramos cells", "test": "Mitochondrial membrane potential (JC-1), Ramos", "format": "cell-based", "settings": "single agent alone", "method": "Mitchondrial membrane potential. Loss of the mitochondrial membrane potential (ΔΨm) of cells was measured by the use of JC-1 (Molecular Probes, Inc., Eugene, Oreg.). Cells undergoing early apoptosis lose fluorescence in the 585 nm channel and gain it in the 530 nm channel. Briefly, cells cultured as described above were washed twice with complete medium, re-suspended in 0.5 mL JC-1 solution (10 μg/mL in complete medium), and incubated at 37° C. for 15 minutes. Cells were isolated by centrifugation, washed once and then re-suspended in 0.5 mL solution of 0.5% BSA in PBS and assayed immediately on the flow cytometer."}, "[7]": {"system": "Ramos, Raji, DB, DHL-4, HF-1, Jurkat, K562 and HL-60 cell lines", "test": "Proliferation of hematologic cell lines", "format": "cell-based", "settings": "for Effect on proliferation: low concentrations of zinc or MGd alone", "method": "as §1, with “Cellular Proliferation—The” for “Methods: The”"}, "A549 cells [8]": {"system": "A549 cells", "test": "Cell viability by propidium iodide exclusion, A549", "procedure": "Methods: Cellular Viability. Cell viability was determined by using propidium iodide (PI) flow cytometric analysis. Cells from plateau phase cultures grown in T-25 flasks were harvested as described above, except that cells present in the growth medium and wash solution were isolated by centrifugation and included in the analysis. Cells were resuspended in 1 mL PBS, an aliquot of 3×10^5 cells transferred to a 4 mL tube, and the cells isolated by centrifugation. Cell pellets were resuspended in PBS supplemented with 2 μg/mL propidium iodide (Sigma), incubated for 5 minutes at ambient temperature, and subjected to flow cytometric analysis. Flow cytometry was performed on a FACSCalibur instrument and data were analyzed using the CellQuest Pro software package (BD Biosciences)."}},
  "note": "“Also recorded” adds a separate entry of the source.",
  "data": [
    {"smiles": "CC(=O)[O-].CC(=O)[O-].CCc1c(CC)c2cc3nc(cnc4cc(OCCOCCOCCOC)c(OCCOCCOCCOC)cc4ncc4nc(cc1[n-]2)C(CCCO)=C4C)C(C)=C3CCCO.O.[Gd+3]", "note": "[MGd, Motexafin gadolinium]", "values": [
      {"measurement": "Metallothionein transcript levels", "setting": "[1]", "result": "raised; also recorded: significant increase"},
      {"measurement": "Induction of metallothionein gene family members and ZnT1 (Northern blot)", "setting": "[1]; A549 plateau phase, 4 hours, 50 μM MGd or 5 μM Gd(OAc)3", "result": "confirmed the induction; also recorded: induced"},
      {"measurement": "Increase in cellular FluoZin-3 fluorescence", "setting": "A549 cells [2]; serum medium", "result": 1.2, "unit": "fold"},
      {"measurement": "Increase in cellular FluoZin-3 fluorescence", "setting": "A549 cells [2]; serum-free medium", "result": 1.1, "unit": "fold"},
      {"measurement": "Effect of MGd on the anti-proliferative activity of zinc", "setting": "A549 cells [3]; A549, all MGd concentrations tested", "result": "enhanced the anti-proliferative activity of zinc"},
      {"measurement": "A549 cell proliferation", "setting": "A549 cells [3]", "result": "no effect on proliferation"},
      {"measurement": "Effect of MGd on the effect of zinc on proliferation", "setting": "PC3 cells; PC3", "result": "enhanced the effect of zinc"},
      {"measurement": "Cellular proliferation", "setting": "[4]", "result": "without effect"},
      {"measurement": "Effect of MGd on inhibition of lipoate reduction by zinc", "setting": "Thioredoxin reductase; A549", "result": "potentiated"},
      {"measurement": "Apparent inhibitory concentration of MGd", "setting": "Thioredoxin reductase; A549, dose-dependent effect of MGd on inhibition with zinc", "result": "approximately 2.5 μM"},
      {"measurement": "Concentration above which the effect of MGd on lipoate reduction saturated", "setting": "Thioredoxin reductase; A549, potentiation of zinc inhibition", "result": "approximately 5 μM"},
      {"measurement": "Inhibition of lipoate reduction", "setting": "Thioredoxin reductase", "result": "approximately 10%"},
      {"measurement": "DCF signal", "setting": "Ramos cells [5]", "result": "increased DCF signal"},
      {"measurement": "JC-1 fluorescence", "setting": "Ramos cells [6]", "result": "No significant change"},
      {"measurement": "Effect of MGd on sensitivity to zinc (proliferation)", "setting": "[7]; all cell lines", "result": "increased"},
      {"measurement": "Effect of MGd co-treatment on the inhibition of proliferation by zinc", "setting": "[7]; all lines except HL60", "result": "potentiated the inhibition by zinc"},
      {"measurement": "Effect on proliferation", "setting": "[7]; all cell lines", "result": "no significant effect"},
      {"measurement": "Effect of MGd on the cytotoxicity of CdCl2", "setting": "A549 cells [8]; A549 cells, FIG. 2A", "result": "attenuated"}
    ]},
    {"smiles": "CC(=O)[O-].CC(=O)[O-].[Zn+2]", "note": "[Zn(OAc)2, Zinc acetate]", "values": [
      {"measurement": "Metallothionein transcript levels", "setting": "[1]", "result": "significant increase"},
      {"measurement": "Metallothionein transcript levels", "setting": "[1]; listed as zinc", "result": "raised"},
      {"measurement": "Cell-associated fluorescence of FluoZin-3 at 530 nm", "setting": "A549 cells [2]; A549, 4 hours, Zn(OAc)2 50-100 μM", "result": "significantly increased"},
      {"measurement": "A549 cell proliferation", "setting": "A549 cells [3]", "result": "modestly inhibited"},
      {"measurement": "PC3 cell proliferation", "setting": "PC3 cells", "result": "inhibited"},
      {"measurement": "Cellular proliferation", "setting": "[4]", "result": "without effect"},
      {"measurement": "Inhibition of lipoate reduction", "setting": "Thioredoxin reductase", "result": "≤ 30", "unit": "%"},
      {"measurement": "DCF signal", "setting": "Ramos cells [5]", "result": "increased DCF signal"},
      {"measurement": "JC-1 fluorescence", "setting": "Ramos cells [6]", "result": "No significant change"},
      {"measurement": "Proliferation", "setting": "[7]; 50 to 100 μM zinc, four additional B-cell lines, K562, Jurkat", "result": "inhibited the proliferation"},
      {"measurement": "Effect on proliferation", "setting": "[7]; all cell lines", "result": "no significant effect"},
      {"measurement": "Cellular viability (propidium iodide exclusion)", "setting": "A549 cells [8]; A549, 24 hours, Zn(OAc)2 100 μM, CdCl2 50 μM, MGd 50 μM", "result": "no effect on cellular viability"}
    ]}
  ]
}
